Results taken from article PMC7044277 (Nature Communications, 2020).
“And” between values parts separate entries of the source, which are not always exact repeats. Equal entries are not always repeated.

What was measured:
Assay type in all cases: cell-based
320 non-olfactory GPCRs [1] = biological target: T1, 320 non-olfactory GPCRs (Homo sapiens, UniProt P25116)
T1 construct: expressed in transfected cells; host or cells: HTLA cells

320 non-olfactory GPCRs [2] = biological target: T2, 320 non-olfactory GPCRs (Homo sapiens, UniProt P32247)
T2 construct: expressed in transfected cells; host or cells: HTLA cells
T2 sequence (P32247 whole entry): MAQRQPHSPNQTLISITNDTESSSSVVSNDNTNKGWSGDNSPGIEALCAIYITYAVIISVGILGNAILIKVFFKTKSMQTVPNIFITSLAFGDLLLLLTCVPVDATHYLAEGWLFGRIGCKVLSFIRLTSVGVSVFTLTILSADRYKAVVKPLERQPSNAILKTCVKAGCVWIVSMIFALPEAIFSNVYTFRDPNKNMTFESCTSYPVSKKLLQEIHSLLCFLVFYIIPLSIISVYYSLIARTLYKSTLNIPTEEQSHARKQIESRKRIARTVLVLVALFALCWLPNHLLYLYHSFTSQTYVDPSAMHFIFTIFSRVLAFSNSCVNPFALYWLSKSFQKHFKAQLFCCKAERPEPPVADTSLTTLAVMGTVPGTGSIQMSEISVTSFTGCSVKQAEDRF

320 non-olfactory GPCRs [3] = biological target: T3, 320 non-olfactory GPCRs (Homo sapiens, UniProt P43116); conditions: receptor PTGER2; replicate values, Fig_4g
T3 construct: expressed in transfected cells; host or cells: HTLA cells
T3 sequence (P43116 whole entry): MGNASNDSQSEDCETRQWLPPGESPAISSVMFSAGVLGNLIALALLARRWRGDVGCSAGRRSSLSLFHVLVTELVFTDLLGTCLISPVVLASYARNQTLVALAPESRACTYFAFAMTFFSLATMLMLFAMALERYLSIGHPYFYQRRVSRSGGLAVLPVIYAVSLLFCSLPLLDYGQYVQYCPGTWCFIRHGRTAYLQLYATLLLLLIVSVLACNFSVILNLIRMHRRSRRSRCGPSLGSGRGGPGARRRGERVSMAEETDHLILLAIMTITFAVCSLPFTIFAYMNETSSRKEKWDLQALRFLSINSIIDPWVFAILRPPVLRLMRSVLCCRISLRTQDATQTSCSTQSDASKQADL

320 non-olfactory GPCRs [4] = biological target: T4, 320 non-olfactory GPCRs (Homo sapiens, UniProt Q8TDV5)
T4 construct: expressed in transfected cells; host or cells: HTLA cells
T4 sequence (Q8TDV5 whole entry): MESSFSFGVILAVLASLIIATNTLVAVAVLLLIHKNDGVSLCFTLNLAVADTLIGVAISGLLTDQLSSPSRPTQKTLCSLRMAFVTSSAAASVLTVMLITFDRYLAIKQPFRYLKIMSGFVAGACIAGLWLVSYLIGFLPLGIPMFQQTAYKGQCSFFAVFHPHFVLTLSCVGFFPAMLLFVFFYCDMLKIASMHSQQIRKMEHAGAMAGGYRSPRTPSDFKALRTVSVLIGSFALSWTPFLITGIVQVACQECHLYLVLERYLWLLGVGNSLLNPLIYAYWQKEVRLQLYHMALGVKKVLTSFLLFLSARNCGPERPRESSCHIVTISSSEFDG
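Wherever Fold of Basal is given: compound tested at 1 µM final concentration.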
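Wherever GPCRome agonism screen response is given: fold over basal response of each receptor without drug.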

T1 sequence (P25116 22-425): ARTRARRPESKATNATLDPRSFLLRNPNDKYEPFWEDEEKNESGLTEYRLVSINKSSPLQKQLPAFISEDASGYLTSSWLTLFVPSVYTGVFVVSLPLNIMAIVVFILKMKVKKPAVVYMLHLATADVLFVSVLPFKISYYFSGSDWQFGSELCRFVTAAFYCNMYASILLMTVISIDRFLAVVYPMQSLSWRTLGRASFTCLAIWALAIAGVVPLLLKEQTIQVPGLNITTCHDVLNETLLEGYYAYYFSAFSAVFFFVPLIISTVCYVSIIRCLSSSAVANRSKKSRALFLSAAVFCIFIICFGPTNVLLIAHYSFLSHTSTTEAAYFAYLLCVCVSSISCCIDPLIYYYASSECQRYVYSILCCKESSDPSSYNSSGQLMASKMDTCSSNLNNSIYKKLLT

## CCOc1cccc2cc(C(C)NCC3(O)CCCCC3)oc12 (stereo not shown) [O4LE6]
320 non-olfactory GPCRs [1]
  Fold of Basal: 0.906 and 0.8507 and 1.071 and 1.142
320 non-olfactory GPCRs [2]
  Fold of Basal: 1.192 and 1.354 and 1.033 and 1.091
320 non-olfactory GPCRs [3]
  GPCRome agonism screen response: 0.6203 and 0.7336 and 1.113 and 1.811
320 non-olfactory GPCRs [4]
  Fold of Basal: 0.5971 and 0.6704 and 0.4797 and 0.8296
